# Experimental data: patent US20200270575A1, “Culture System for Expanding Hematopoietic Stem Cells and/or Hematopoietic Progenitor Cells and the Method Thereof, Hematopoietic Stem Cells and Hematopoietic Progenitor Cells” (NEWISH TECHNOLOGY (BEIJING) CO., LTD., priority 2017, published 2020)
# Legend:
# [1] = system: cord blood-derived CD34+ cells; assay: In vitro expansion of CD34+CD45RA− cells, 7-day culture of cord blood-derived CD34+ cells; assay type: cell-based, human
# Method: The material was derived from cord blood waste supplied by the company, and cord blood-derived CD34+ cells were isolated by magnetic bead sorting (MACS) as cultured materials in the following examples.
# CD34+ cells were cultured based on the culture conditions of Table 1. The experimental group (the small chemical molecule is SP600125) and the control group (the small chemical molecule is replaced by DMSO, the volume ratio of DMSO: medium is 1:10000) were placed in the cell incubator at 37° C. with the concentration of 5% carbon dioxide, and half amount of the medium was changed every 2 days.
# On the 7th day of the culturing, the ratio of CD34+CD45RA−cells was measured, and the fold expansion was counted and calculated. The CD34+CD45RA− in the experimental group was about 15 times in the fold expansion, while the CD34+CD45RA− in the control group was about 5 times in fold expansion.
# immunodeficient mice = assay: Transplantation experiment in vivo: reconstitution of human cells in bone marrow and peripheral blood after 4 months; details: for reconstruction effect of experimental group relative to control group (DMSO): 4 months; for blood cells in human peripheral blood (reconstitution proportion of peripheral blood) / reconstruction proportion of human blood cells in bone marrow (CD45+ cells): 4 months after transplantation
# Method: On the 7th day of the culturing, the transplantation experiment in vivo was carried out at the meantime. The expanded CD34+ cells in the experimental group and the control group were respectively injected into the immunodeficient mice by bone marrow transplantation. Each group contain 8 mice, and each mouse was injected with the total cells expanded from 5000 original CD34+ cells. The reconstitution ratio of human cells in peripheral blood and bone marrow of immunodeficient mice were measured after 4 months. In the experimental group, the reconstruction proportion of human blood cells in bone marrow (CD45+ cells) reached about 50%, and the blood cells in human peripheral blood reached about 5%. In the control group, the reconstruction proportion of human blood cells in bone marrow reached about 20%, and the blood cells in human peripheral blood reached about 1%. The reconstruction effect of the experimental group was about 4 times higher than that of the control group after a general comparison.
# immunodeficiency mice = details: background, 2010 report; cited from earlier work
# LT-HSC = details: background, 2014 report; cited from earlier work
# [2] = Example 4: cells expanded with 5 μM
# [3] = Example 5: cells expanded with 1 μM
# [4] = Example 6: cells expanded with 0.5 μM
# [5] = Example 2: cells expanded with 4 μM
# [6] = Example 3: cells expanded with 2 μM
# [7] = Example 7: cells expanded with 5 μM
compound,measurement,setting,value
N#C/C(=C1/Nc2ccccc2S1)c1ccnc(NCCc2cccnc2)n1 [AEG-3482],proliferation amount of CD34+CD45RA− in the experimental group relative to control group (DMSO),"[1]; Example 4: 5 μM, SCF 10, FL 100, TPO 10 ng/ml, LDL 2 μg/ml, day 7",2.3 times
same,reconstruction effect of experimental group relative to control group (DMSO),"immunodeficient mice; Example 4: 5 μM, general comparison",about 2.5 times
same,blood cells in human peripheral blood (reconstitution proportion of peripheral blood),immunodeficient mice; [2],about 3.5%
same,reconstruction proportion of human blood cells in bone marrow (CD45+ cells),immunodeficient mice; [2],about 35%
CN(C)C/C=C/C(=O)Nc1cccc(C(=O)Nc2ccc(Nc3nccc(-c4cccnc4)n3)cc2)c1 [JNK-IN-7],proliferation amount of CD34+CD45RA− in the experimental group relative to control group (DMSO),"[1]; Example 5: 1 μM, SCF 200, FL 50, TPO 5 ng/ml, LDL 10 μg/ml, day 7",2.5 times
same,reconstruction effect of experimental group relative to control group (DMSO),"immunodeficient mice; Example 5: 1 μM, general comparison",about 5 times
same,blood cells in human peripheral blood (reconstitution proportion of peripheral blood),immunodeficient mice; [3],about 8.5%
same,reconstruction proportion of human blood cells in bone marrow (CD45+ cells),immunodeficient mice; [3],about 58%
CN(C)C/C=C/C(=O)Nc1cccc(C(=O)Nc2ccc(Nc3nccc(-c4c(-c5ccccc5)nn5ccccc45)n3)cc2)c1 [JNK-IN-11],proliferation amount of CD34+CD45RA− in the experimental group relative to control group (DMSO),"[1]; Example 6: 0.5 μM, SCF 300, FL 100, TPO 20 ng/ml, LDL 10 μg/ml, day 7",2.8 times
same,reconstruction effect of experimental group relative to control group (DMSO),"immunodeficient mice; Example 6: 0.5 μM, general comparison",about 8 times
same,blood cells in human peripheral blood (reconstitution proportion of peripheral blood),immunodeficient mice; [4],about 12.5%
same,reconstruction proportion of human blood cells in bone marrow (CD45+ cells),immunodeficient mice; [4],about 78%
O=C1c2ccccc2-c2n[nH]c3cccc1c23 [SP600125],fold expansion of CD34+CD45RA− cells at day 7 relative to the primary cells,"[1]; Example 1: 4 μM, SCF 100, FL 100, TPO 50 ng/ml, LDL 10 μg/ml",about 15 times
same,CD34+CD45RA− in the experimental group relative to control group (DMSO),"[1]; Example 2: 4 μM, SCF 50, FL 50, TPO 25 ng/ml, LDL 5 μg/ml, day 7",2.5 times
same,proliferation amount of CD34+CD45RA− in the experimental group relative to control group (DMSO),"[1]; Example 3: 2 μM, SCF 20, FL 50, TPO 20 ng/ml, LDL 5 μg/ml, day 7",2 times
same,proliferation amount of CD34+CD45RA− in the experimental group relative to control group (DMSO),"[1]; Example 7: 5 μM, SCF 500, FL 100, TPO 20 ng/ml, LDL 10 μg/ml, day 7",2.3 times
same,reconstruction effect of experimental group relative to control group (DMSO),"immunodeficient mice; Example 1: 4 μM, general comparison",about 4 times
same,blood cells in human peripheral blood (reconstitution proportion of peripheral blood),immunodeficient mice; Example 1: cells expanded with 4 μM,about 5%
same,reconstruction proportion of human blood cells in bone marrow (CD45+ cells),"immunodeficient mice; Example 1: cells expanded with 4 μM, cells from 5000 original CD34+ cells per mouse",about 50%
same,reconstruction effect of experimental group relative to control group (DMSO),"immunodeficient mice; Example 2: 4 μM, general comprehensive comparison",about 6 times
same,blood cells in human peripheral blood (reconstitution proportion of peripheral blood),immunodeficient mice; [5],about 9%
same,reconstruction proportion of human blood cells in bone marrow (CD45+ cells),immunodeficient mice; [5],about 70%
same,reconstruction effect of experimental group relative to control group (DMSO),"immunodeficient mice; Example 3: 2 μM, general comparison",about 4 times
same,blood cells in human peripheral blood (reconstitution proportion of peripheral blood),immunodeficient mice; [6],about 4%
same,reconstruction proportion of human blood cells in bone marrow (CD45+ cells),immunodeficient mice; [6],about 40%
same,reconstruction effect of experimental group relative to control group (DMSO),"immunodeficient mice; Example 7: 5 μM, general comparison",about 5.5 times
same,blood cells in human peripheral blood (reconstitution proportion of peripheral blood),immunodeficient mice; [7],about 7.5%
same,reconstruction proportion of human blood cells in bone marrow (CD45+ cells),immunodeficient mice; [7],about 58%
CC(C)n1cnc2c(NCCc3ccc(O)cc3)nc(-c3csc4ccccc34)nc21 [SR1],increase of the amount of exogenous hematopoietic cells detected in immunodeficiency mice,immunodeficiency mice,17 times
Cn1nnc(-c2ccc3c(c2)[nH]c2nc(Cc4ccccc4)nc(NC4CCC(N)CC4)c23)n1 (stereo not drawn) [UM171],maintenance of the function of hematopoietic reconstitution,LT-HSC,up to 6 months
